Test results from patent US20020035111A1, “Method of inhibiting neoplastic cells with tetracyclic pyrido[3,4-B] indole derivatives” (priority 1998, published 2002).

C[C@@H]1NC(=O)[C@H]2Cc3c([nH]c4ccccc34)[C@@H](c3ccc4occc4c3)N2C1=O [Example 123, (3S, 6R, 12aR)-2,3,6,7, 12, 12a-Hexahydro-6-(5-Benzofuranyl)-3-Methyl-Pyrazino[2′,1′:6,1]Pyrido [3,4-b]Indole-1,4-Dione]
melting point: 150 to 151 °C
